In patent publication US20100063065A1 (Inpharmatica Limited, priority 2005, published 2010):
Structures can show the parent of a compound that is named as a salt.

Target: T1, PPARδ (Homo sapiens, UniProt Q03181)
T1 construct: fused to amino acids 147-441 of PPARδ downstream of CMV promoter; expressed in transfected cells; host or cells: HEK293 cells, transiently transfected with pFACMV-PPARδ using Fugene
T1 sequence (Q03181 147-441): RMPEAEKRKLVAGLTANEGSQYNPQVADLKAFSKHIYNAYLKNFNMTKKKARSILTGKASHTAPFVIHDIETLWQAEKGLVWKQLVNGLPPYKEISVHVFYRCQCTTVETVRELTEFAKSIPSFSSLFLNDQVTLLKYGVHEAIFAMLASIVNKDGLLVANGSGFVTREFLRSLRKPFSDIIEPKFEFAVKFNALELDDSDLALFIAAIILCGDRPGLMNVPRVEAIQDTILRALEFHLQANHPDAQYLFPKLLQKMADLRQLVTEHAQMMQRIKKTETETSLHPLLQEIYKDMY
Experiment: Transactivation assay (PPARδ GAL4 assay) in transiently transfected HEK293 cells
Assay type: cell-based
Settings: luciferase reporter, Table 1
How it was run: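 Luciferase luminescence after 24 h compound treatment (0-30 μM final, OptiMEM, 37° C./5% CO2) gave EC50 by sigmoidal fitting, with activity normalised to GW501516 as percent. Reporter system: transiently transfected HEK293 expressing GAL4 DNA-binding domain fused to human PPARδ aa 147-441, plus 5×GAL4-driven luciferase.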

| SMILES | EC50 [nM] |
| --- | --- |
| O=C(O)CSCC(=O)Nc1sc(Cl)cc1C(=O)c1ccc(OC(F)(F)F)cc1 [Example 67, {[5-Chloro-3-(4-trifluoromethoxy-benzoyl)-thiophen-2-ylcarbamoyl]-methylsulfanyl}-acetic acid] | < 100 |
| COc1ccc(C(=O)c2ccsc2NC(=O)CSCC(=O)O)cc1 [Example 68, {[3-(4-Methoxy-benzoyl)-thiophen-2-ylcarbamoyl]-methylsulfanyl}-acetic acid] | 1000 to 30000 |
| CCc1cc(C(=O)c2ccc(OC)cc2)c(NC(=O)CCCCC(=O)O)s1 [Example 69, 5-[5-Ethyl-3-(4-methoxy-benzoyl)-thiophen-2-ylcarbamoyl]-pentanoic acid] | 1000 to 30000 |
| CCc1cc(C(=O)c2ccc(OC)cc2)c(NC(=O)CCCSCC(=O)O)s1 [Example 71, {3-[5-Ethyl-3-(4-methoxy-benzoyl)-thiophen-2-ylcarbamoyl]-propylsulfanyl}-acetic acid] | 100 to 1000 |
| CCc1cc(C(=O)c2ccc(OC)cc2)c(NC(=O)C(C)SCC(=O)O)s1 (stereo not shown) [Example 72, {1-[5-Ethyl-3-(4-methoxy-benzoyl)-thiophen-2-ylcarbamoyl]-ethylsulfanyl}-acetic acid] | 100 to 1000 |
| CCc1cc(C(=O)c2ccc(OC)cc2)c(NC(=O)CN(C)CC(=O)O)s1 [Example 73, ({[5-Ethyl-3-(4-methoxy-benzoyl)-thiophen-2-ylcarbamoyl]-methyl}-methyl-amino)-acetic acid hydrochloride] | 1000 to 30000 |
| CCc1cc(C(=O)c2ccc(OC)cc2)c(NC(=O)CNCC(=O)O)s1 [Example 74, ({[5-Ethyl-3-(4-methoxy-benzoyl)-thiophen-2-ylcarbamoyl]-methyl}-amino)-acetic acid hydrochloride] | 1000 to 30000 |
| CCc1cc(C(=O)c2ccc(OC(F)(F)F)cc2)c(NC(=O)CNC(C)(C)C(=O)O)s1 [Example 76, 2-({[5-Ethyl-3-(4-trifluoromethoxy-benzoyl)-thiophen-2-ylcarbamoyl]-methyl}-amino)-2-methyl-propionic acid] | < 100 |
| CCc1cc(C(=O)c2ccc(OC(F)(F)F)cc2)c(NC(=O)CNC(CC(C)C)C(=O)O)s1 (stereo not shown) [Example 77, 2-({[5-Ethyl-3-(4-trifluoromethoxy-benzoyl)-thiophen-2-ylcarbamoyl]-methyl}-amino)-4-methyl-pentanoic acid] | < 100 |
| CCc1cc(C(=O)c2ccc(OC(F)(F)F)cc2)c(NC(=O)CN[C@@H](C(=O)O)C(C)C)s1 [Example 78, (R)-2-({[5-Ethyl-3-(4-trifluoromethoxy-benzoyl)-thiophen-2-ylcarbamoyl]-methyl}-amino)-3-methyl-butyric acid] | 1000 to 30000 |
| CCc1cc(C(=O)c2ccc(OC(F)(F)F)cc2)c(NC(=O)CN[C@H](C(=O)O)C(C)C)s1 [Example 79, (S)-2-({[5-Ethyl-3-(4-trifluoromethoxy-benzoyl)-thiophen-2-ylcarbamoyl]-methyl}-amino)-3-methyl-butyric acid] | < 100 |
| CCc1cc(C(=O)c2ccc(OC(F)(F)F)cc2)c(NC(=O)CNC(CC)C(=O)O)s1 (stereo not shown) [Example 80, 2-({[5-Ethyl-3-(4-trifluoromethoxy-benzoyl)-thiophen-2-ylcarbamoyl]-methyl}-amino)-butyric acid] | < 100 |
| CCc1cc(C(=O)c2ccc(OC(F)(F)F)cc2)c(NC(=O)CNCC(=O)O)s1 [Example 81, ({[5-Ethyl-3-(4-trifluoromethoxy-benzoyl)-thiophen-2-ylcarbamoyl]-methyl}-amino)-acetic acid] | 100 to 1000 |
| CCc1cc(C(=O)c2ccc(OC(F)(F)F)cc2)c(NC(=O)CNC2(C(=O)O)CC2)s1 [Example 82, 1-({[5-Ethyl-3-(4-trifluoromethoxy-benzoyl)-thiophen-2-ylcarbamoyl]-methyl}-amino)-cyclopropanecarboxylic acid] | 1000 to 30000 |
| CCc1cc(C(=O)c2ccc(-c3ccc(F)cc3)cc2)c(NC(=O)CNC(C)(C)C(=O)O)s1 [Example 83, 2-({[5-Ethyl-3-(4′-fluoro-biphenyl-4-carbonyl)-thiophen-2-ylcarbamoyl]-methyl}-amino)-2-methyl-propionic acid] | < 100 |
| CCc1cc(C(=O)c2cccc(-c3ccc(OC(F)(F)F)cc3)c2)c(NC(=O)CNC(C)(C)C(=O)O)s1 [Example 84, 2-({[5-Ethyl-3-(4′-trifluoromethoxy-biphenyl-3-carbonyl)-thiophen-2-ylcarbamoyl]-methyl}-amino)-2-methyl-propionic acid] | 100 to 1000 |
| CCc1cc(C(=O)c2cccc(-c3ccc(F)cc3)c2)c(NC(=O)CNC(C)(C)C(=O)O)s1 [Example 85, 2-({[5-Ethyl-3-(4′-fluoro-biphenyl-3-carbonyl)-thiophen-2-ylcarbamoyl]-methyl}-amino)-2-methyl-propionic acid] | 100 to 1000 |

| SMILES | EC50 [nM] |
| --- | --- |
| CC(C)(NCC(=O)Nc1sc(Cl)cc1C(=O)c1ccc(OC(F)(F)F)cc1)C(=O)O [Example 86, 2-({[5-Chloro-3-(4-trifluoromethoxy-benzoyl)-thiophen-2-ylcarbamoyl]-methyl}-amino)-2-methyl-propionic acid] | 100 to 1000 |
| CCc1cc(C(=O)c2ccc(Cl)cc2)c(NC(=O)C(C)N(C)CC(=O)O)s1 (stereo not shown) [Example 87, ({1-[3-(4-Chloro-benzoyl)-5-ethyl-thiophen-2-ylcarbamoyl]-ethyl}-methyl-amino)-acetic acid] | 100 to 1000 |
| CCc1cc(C(=O)c2ccc(OC)cc2)c(NC(=O)CSc2cccc(OCC(=O)O)c2)s1 [Example 88, (3-{[5-Ethyl-3-(4-methoxy-benzoyl)-thiophen-2-ylcarbamoyl]-methylsulfanyl}-phenoxy)-acetic acid] | 1000 to 30000 |
| CCc1cc(C(=O)c2ccc(OC)cc2)c(NC(=O)CSc2ccc(OCC(=O)O)cc2)s1 [Example 89, (4-{[5-Ethyl-3-(4-methoxy-benzoyl)-thiophen-2-ylcarbamoyl]-methylsulfanyl}-phenoxy)-acetic acid] | 1000 to 30000 |
| CCc1cc(C(=O)c2ccc(OC)cc2)c(NC(=O)CSc2cccc(C(=O)O)c2)s1 [Example 90, 3-{[5-Ethyl-3-(4-methoxy-benzoyl)-thiophen-2-ylcarbamoyl]-methylsulfanyl}-benzoic acid] | 1000 to 30000 |
| CCc1cc(C(=O)c2ccc(OC)cc2)c(NC(=O)CSc2ccc(OCC(=O)O)c(C)c2)s1 [Example 91, (4-{[5-Ethyl-3-(4-methoxy-benzoyl)-thiophen-2-ylcarbamoyl]-methylsulfanyl}-2-methyl-phenoxy)-acetic acid] | 1000 to 30000 |
| CCc1cc(C(=O)c2ccc(OC)cc2)c(NC(=O)CSc2ccc(OC(C)(C)C(=O)O)cc2)s1 [Example 92, 2-(4-{[5-Ethyl-3-(4-methoxy-benzoyl)-thiophen-2-ylcarbamoyl]-methylsulfanyl}-phenoxy)-2-methyl-propionic acid] | 100 to 1000 |
| CCc1cc(C(=O)c2ccc(OC(F)(F)F)cc2)c(NC(=O)CSc2ccc(OCC(=O)O)cc2)s1 [Example 93] | 100 to 1000 |
| CCc1cc(C(=O)c2ccc(OC(F)(F)F)cc2)c(NC(=O)CSc2ccc(OCC(=O)O)c(C)c2)s1 [Example 94, (4-{[5-Ethyl-3-(4-trifluoromethoxy-benzoyl)-thiophen-2-ylcarbamoyl]-methylsulfanyl}-2-methyl-phenoxy)-acetic acid] | 100 to 1000 |
| CCc1cc(C(=O)c2ccc(OC(F)(F)F)cc2)c(NC(=O)CSc2ccc(OC(C)(C)C(=O)O)cc2)s1 [Example 95, 2-(4-{[5-Ethyl-3-(4-trifluoromethoxy-benzoyl)-thiophen-2-ylcarbamoyl]-methylsulfanyl}-phenoxy)-2-methyl-propionic acid] | 100 to 1000 |
| CCc1cc(C(=O)c2ccc(OC(F)(F)F)cc2)c(NC(=O)CSc2ccc(CCC(=O)O)cc2)s1 [Example 96, 3-(4-{[5-Ethyl-3-(4-trifluoromethoxy-benzoyl)-thiophen-2-ylcarbamoyl]-methylsulfanyl}-phenyl)-propionic acid] | 100 to 1000 |
| CCc1cc(C(=O)c2ccc(Cl)cc2)c(NC(=O)c2ccc(OCC(=O)O)cc2)s1 [Example 97, {4-[3-(4-Chloro-benzoyl)-5-ethyl-thiophen-2-ylcarbamoyl]-phenoxy}-acetic acid] | 100 to 1000 |
| CCc1cc(C(=O)c2ccc(OC(F)(F)F)cc2)c(NC(=O)c2cccc(SCC(=O)O)c2)s1 [Example 98, {3-[5-Ethyl-3-(4-trifluoromethoxy-benzoyl)-thiophen-2-ylcarbamoyl]-phenylsulfanyl}-acetic acid] | 100 to 1000 |
| CCc1cc(C(=O)c2ccc(OC(F)(F)F)cc2)c(NC(=O)c2ccc(OCC(=O)O)cc2)s1 [Example 99, {4-[5-Ethyl-3-(4-trifluoromethoxy-benzoyl)-thiophen-2-ylcarbamoyl]-phenoxy}-acetic acid] | < 100 |
| CCc1cc(C(=O)c2ccc(OC(F)(F)F)cc2)c(NC(=O)c2cccc(OCC(=O)O)c2)s1 [Example 100, {3-[5-Ethyl-3-(4-trifluoromethoxy-benzoyl)-thiophen-2-ylcarbamoyl]-phenoxy}-acetic acid] | 100 to 1000 |
| CCc1cc(C(=O)c2ccc(OC(F)(F)F)cc2)c(NC(=O)c2ccc(OCC(=O)O)c(C)c2)s1 [Example 101, {4-[5-Ethyl-3-(4-trifluoromethoxy-benzoyl)-thiophen-2-ylcarbamoyl]-2-methyl-phenoxy}-acetic acid] | < 100 |
| CCc1cc(C(=O)c2ccc(OC(F)(F)F)cc2)c(NC(=O)c2ccc(OC(C)(C)C(=O)O)cc2)s1 [Example 102, 2-{4-[5-Ethyl-3-(4-trifluoromethoxy-benzoyl)-thiophen-2-ylcarbamoyl]-phenoxy}-2-methyl-propionic acid] | 100 to 1000 |
